Counter-ions that a name gives are not always drawn.
Tests used:
[1] = tested on: subjects with occult or minimally classic subtypes of choroidal neovascularization due to AMD; experiment: Best-corrected visual acuity (BCVA, ETDRS/AREDS procedure) in AMD patients, 28-day eye-drop study; format: in vivo, human; settings: for Change from Baseline in BCVA Day 29, Point Estimate: Overall
Procedure: (§1) Three dosing regimens of pazopanib monohydrochloride eye drops (5 mg/mL TID, 2 mg/mL TID, 5 mg/mL QD) were administered for 28 days to 70 subjects with occult or minimally classic subtypes of choroidal neovascularization due to AMD. This study was designed to measure pharmacological activity of topically administered pazopanib in target tissues (choroid and retina) of patients with AMD by weekly evaluation of central retinal lesion thickness as measured by optical coherence tomography (OCT). In addition, the ocular and systemic safety and systemic pharmacokinetics of pazopanib treatment for 28 days were evaluated. Evaluation of efficacy was performed on an exploratory basis by weekly measurement of visual acuity, performing best-corrected visual acuity assessments at screening and day 29.
(§2) Of the total of 70 subjects that were randomized, 28 had been previously treated with anti-angiogenic agents for treatment of macular degeneration and 42 were treatment-naïve. The protocol excluded subjects who had received any treatment for AMD within 60 days of the first dose of study medication in this trial. A total of 68 subjects completed all study assessments, of which 63 completed the assessments of Day 29 visit without receiving any rescue medication. 6 subjects received anti-VEGF rescue medication prior to the Day 29 assessment (1 of 27 in the 5 mg/ml TID arm, 2 of 27 in the 2 mg/ml TID, 3 of 16 subjects in the 5 mg QD arm, which was discontinued per protocol amendment due to feasibility.) Baseline characteristics in the study were similar between treatment groups, with the exception of age and lesion size, which were increased in the 2 mg/ml TID arm.
Sites were trained and certified for visual acuity assessment with the standard procedure developed for the Early Treatment Diabetic Retinopathy Study (ETDRS) and adapted for the Age Related Eye Disease Study (AREDS). Best-corrected visual acuity (BCVA) measurements were performed at screening and Day 29 visits and, at other visits, use of the previous refraction for the visual acuity (VA) assessment was allowed.

[2] = tested on: subjects with occult or minimally classic subtypes of choroidal neovascularization due to AMD; experiment: Optical coherence tomography central retinal thickness (OCT CRT/CRLT) in AMD patients, 28-day eye-drop study; format: in vivo, human
Procedure: as §1, §2
Sites were certified by a central reading center to collect images to assess Central Retinal Thickness (CRT, subretinal fluid) and Central Retinal Lesion Thickness (CRLT, subretinal fluid and neovascular lesion) on a Stratus OCT 3 instrument weekly. Values were then determined by manual measurement at the reading center. As used herein, “OCT CRLT” means optical coherence tomography central retinal/lesion thickness as determined by manual measurement of the distance between the inner and outer retina, inclusive of subretinal fluid and any choroidal neovascularization (CNV) as measured in the central 1 mm area of the 7 mm posterior pole scan. As used herein, “OCT CRT” means optical coherence tomography central retinal thickness as determined by manual measurement of the distance between the inner and outer retina inclusive of any subretinal fluid as measured in the central 1 mm area of the 7 mm posterior pole scan.

Cc1ccc(Nc2nccc(N(C)c3ccc4c(C)n(C)nc4c3)n2)cc1S(N)(=O)=O [pazopanib monohydrochloride, 5-[[4-[(2,3-dimethyl-2H-indazol-6-yl)methylamino]-2-pyrimidinyl]amino]-2-methylbenzenesulfonamide monohydrochloride]
Change from Baseline BCVA at Day 29, BCVA LSMean (SE) ([1]; 2 mg/ml TID, CFH Y402H genotype CC, N=3): 0.85 (4.07) | Change from Baseline BCVA at Day 29, BCVA LSMean (SE) ([1]; 2 mg/ml TID, CFH Y402H genotype CT, N=10): −1.52 (2.24) | Change from Baseline BCVA at Day 29, BCVA LSMean (SE) ([1]; 2 mg/ml TID, CFH Y402H genotype TT, N=4): 5.43 (3.60) | change in visual acuity ([1]; 5 mg/ml TID group only, enhanced in previously treated group and those with a T allele): Statistically significant increases | Change from Baseline BCVA at Day 29, BCVA LSMean (SE) ([1]; 5 mg/ml TID, CFH Y402H genotype CC, N=7): 0.36 (2.68) | Change from Baseline BCVA at Day 29, BCVA LSMean (SE) ([1]; 5 mg/ml TID, CFH Y402H genotype CT, N=9): 4.09 (2.38) | Change from Baseline BCVA at Day 29, BCVA LSMean (SE) ([1]; 5 mg/ml TID, CFH Y402H genotype TT, N=5): 6.96 (3.18) | Change from Baseline in BCVA at Day 29, Point Estimate ([1]; Naïve Subjects, 2 mg/mL TID): 1.16 | Change from Baseline in BCVA at Day 29, Point Estimate ([1]; Naïve Subjects, 5 mg/mL TID): 3.38 | Change from Baseline in BCVA at Day 29, Point Estimate ([1]; Naïve Subjects, 5 mg/mL once daily): 0.80 | Change from Baseline in BCVA Day 29, Point Estimate ([1]; 2 mg/mL TID): 0.76 | Change from Baseline in BCVA Day 29, Point Estimate ([1]; 5 mg/mL QD): 0.09 | Change from Baseline in BCVA Day 29, Point Estimate ([1]; 5 mg/mL TID): 4.32 | Change from Baseline in BCVA at Day 29, Point Estimate ([1]; Previously Treated Subjects, 2 mg/mL TID): 0.18 | Change from Baseline in BCVA at Day 29, Point Estimate ([1]; Previously Treated Subjects, 5 mg/mL TID): 5.61 | Change from Baseline in BCVA at Day 29, Point Estimate ([1]; Previously Treated Subjects, 5 mg/mL once daily): −0.80 | Change from Baseline in Central Retinal Thickness at Day 29, CRT LSMean ([2]; 2 mg/ml TID eye drops, CFH genotype CC, N=3): 22.15 | Change from Baseline in Central Retinal Thickness at Day 29, CRT LSMean ([2]; 2 mg/ml TID eye drops, CFH genotype CT, N=10): −14.6 | Change from Baseline in Central Retinal Thickness at Day 29, CRT LSMean ([2]; 2 mg/ml TID eye drops, CFH genotype TT, N=4): −45.5 | Change from Baseline in Central Retinal Thickness at Day 29, CRT LSMean ([2]; 5 mg/ml TID eye drops, CFH genotype CC, N=7): 9.23 | Change from Baseline in Central Retinal Thickness at Day 29, CRT LSMean ([2]; 5 mg/ml TID eye drops, CFH genotype CT, N=9): 21.51 | Change from Baseline in Central Retinal Thickness at Day 29, CRT LSMean ([2]; 5 mg/ml TID eye drops, CFH genotype TT, N=5): −88.8 | mean decrease in CRT ([2]; day 29, subjects with the CFH TT genotype, 5 mg/ml TID, statistically significant): 89 micron | changes from baseline in OCT CRT / CRLT ([2]; overall population): no statistically significant changes from baseline

— patent publication US20120165354A1, “TREATMENT METHOD” (GLAXO WELLCOME MANUFACTURING PTE LTD., priority 2009, published 2012)
